Converted amounts (≈) assume the structure as drawn.
Tests used:
mPTP = mPTP activity assay in isolated rat liver mitochondria (Ca2+ retention, Fluo5N, FLIPR); format: biochemical; details: for mPTP Rat liver pIC50*: isolated rat liver mitochondria, average value from multiple experiments (n ≥ 2)
From the text: Pharmacological inhibition or modulation of the mPTP can be measured in well characterised ‘Ca^2+ retention’ assays performed in isolated mitochondria. In vitro, isolated mitochondria rapidly sequester exogenous Ca^2+ until the intramitochondrial Ca^2+ concentration reaches the threshold for mPTP activation. Once the pore is activated, mitochondrial integrity is compromised and the stored Ca^2+ is released. The distribution of Ca^2+ between extra- and intra-mitochondrial compartments can be measured in real time with the use of membrane-impermeant Ca^2+ sensitive fluorescent dyes. Depending on the configuration of the assay, inhibition or modulation of the mPTP either delays the opening of the pore or increases the concentration of Ca^2+ required to induce mPTP opening.
mPTP activity was measured in mitochondria freshly isolated from female Sprague Dawley (250 to 300 gram) rat livers using the following method. Cervical dislocation was performed on the rat. The liver was then perfused in-situ with ˜40 ml cold Dulbecco's Phosphate Buffered Saline (DPBS) prior to dissection and transferred into 30 ml Isolation Buffer (250 mM Sucrose, 10 mM KCl, 1 mM EGTA, 1 mM EDTA, 25 mM HEPES, adjusted to pH 7.5 with 1 M NaOH). Each lobe of the liver was then removed from the buffer, minced using tweezers and a scalpel into ˜5 mm pieces then transferred into a 50 ml Potterton dounce homogenization tube on ice containing 30 ml ice-cold centrifugation buffer (300 mM Trehalose, 25 mM HEPES, 1 mM EGTA, 1 mM EDTA, 10 mM KCl, adjusted to pH 7.5 with 1 M NaOH and supplemented with 0.1% bovine serum albumin (BSA) and complete protease inhibitor cocktail (one tablet of inhibitor per 50 mls of buffer). Homogenisation was carried out using a teflon pestle at 1800 rpm. The slurry was centrifuged at 800 g for 10 min at 4° C., then the supernatant centrifuged at 10,000 g for 10 min. The pellet was washed once with FLIPR assay buffer (75 mM Mannitol, 25 mM Sucrose, 5 mM Potassium Phosphate Monobasic, 20 mM Tris base, 100 mM KCl, 0.1% BSA adjusted to pH 7.4 with 5 M HCl) centrifuged again, then resuspended in FLIPR assay buffer to a concentration of 8.8 mg/ml protein.
Test compounds (10 mM stock in DMSO) were serially diluted in DMSO in half log steps to generate 10 test concentrations (final concentrations in assay 30 μM to 1 nM). An intermediate dilution of 5 μl DMSO samples into 247 μl FLIPR assay buffer was carried out prior to transfer of 5 μl into duplicate wells of a 384 well polypropylene assay plate. Control wells were 0.5% (v/v) DMSO and 5 μM cyclosporin A.
A stock mitochondria/Fluo5N assay solution was prepared in 5.6 ml FLIPR assay buffer (at RT) supplemented with succinate disodium salt (10 mM), rotenone (1 μM), Fluo5N pentapotassium salt (2 μM) and 1 ml mitochondria suspension, then transferred (15 μl) into the assay plate containing test compounds and incubated for 10 min at RT. Assay plates were then transferred to a FLIPR Tetra plate reader (Molecular Devices). Dye fluorescence was then measured every 3 sec for a total of 10 min. After 12 sec, a 2.5 μl bolus of CaCl2 (75 μM) was added from a source plate containing 675 μM CaCl2 in FLIPR assay buffer. IC50 values for test compounds were calculated using the fluorescence value collected at the 10 min timepoint with % inhibition calculated using the DMSO control and cyclosporin A values as […] respectively.

PBS solubility = format: physicochemical; details: aqueous buffer, kinetic from dmso stock; PBS pH 7.4, 2 hr at 25° C.
Protocol: (§1) Test compounds were prepared as 10 mM stocks in DMSO and 15 μl samples transferred in duplicate into 1.5 mL glass flat bottom vials (BioTech Solutions). Fasted state simulated intestinal fluid (FaSSIF) or PBS (pH 7.4) was added to each vial to final volume of 500 μl. One PTFE encapsulated stir stick (V&P Scientific) was placed in each vial before sealing with PTFE/SIL plugs (BioTech Solutions). Vials were shaken at 1100 rpm for 2 hr at 25° C. Samples were then filtered through MultiScreen Solvinert filter plates (Millipore) via vacuum filtration. Aliquots of filtrate (5 μl) plus 5 μl DMSO were diluted in 490 μl 50% acetonitrile in water containing internal standard. The filtrate was analysed and quantified against a standard of known concentration using LC-MS/MS. Solubility values of the test compound and control compound were calculated as follows: [Sample]=(Area ratiosample*INJ VOL STD*DFsample*[STD])/(Area ratio STD*INJ VOLsample).

FaSSIF solubility = format: physicochemical; details: kinetic from dmso stock, Fasted state simulated intestinal fluid, 2 hr at 25° C.
Protocol: as §1

[1] = Hepatocyte clearance assay, rat; format: in vitro ADME; details: cryopreserved primary rat hepatocytes, average value from two experiments, read-out: Rat heps intrinsic clearance (CLint)
Protocol: (§2) In vitro clearance studies were performed in primary rat and human hepatocytes (BioIVT). Vials of cryopreserved rat or human hepatocytes were thawed in a 37° C. water bath for 2 min. Cells were transferred into thawing medium (Williams' Medium E containing 30% Percoll, 1× GlutaMAX-1, 15 mM HEPES, 5% fetal bovine serum (FBS), 4 μg/ml insulin, 1 μM dexamethasone), centrifuged at 100 g for 10 min then resuspended in culture medium (Leibovitz's L-15 Medium) at a concentration of 0.5×10^6 viable cells/mL (number of viable cells assessed using AO/PI staining). Hepatocytes (198 μL) were transferred into wells of a 96-well non-coated plate and placed in a 37° C. incubator for 10 min. Test compound solutions were prepared from 10 mM stocks in DMSO, diluted to 100 μM in 50% (v/v in water) acetonitrile. Test compound samples (2 μl) were added to each well of hepatocytes and incubated at 37° C. Samples (25 μl) were collected at t=0, 15, 30, […] and 120 min, mixed with 6 volumes (150 μl) of acetonitrile containing internal standard (100 nM alprazolam, 200 nM caffeine and 100 nM tolbutamide), vortexed for 5 min and centrifuged for 45 min at 3220 g. An aliquot of supernatant (100 μL) was diluted with 100 μL ultra-pure water, and the mixture was used for LC/MS/MS analysis. All incubations were performed in duplicate. Peak areas were determined from extracted ion chromatograms. The slope value, k, was determined by linear regression of the natural logarithm of the remaining percentage of the parent drug vs. incubation time curve. The in vitro half-life (in vitro t1/2) was determined from the slope value: in vitro t1/2=0.693/k. Conversion of the in vitro t1/2 (in min) into the in vitro intrinsic clearance (in vitro CLint, in μL/min/1×10^6 cells) was done using the following equation (mean of duplicate determinations): • in vitro CLint=kV/N • V=incubation volume (0.2 mL) • N=number of hepatocytes per well (0.1×10^6 cells). Microsomal Clearance Assay

[2] = Microsomal clearance assay, rat liver microsomes; format: in vitro ADME; details: average value from two experiments, read-out: Rat liver microsomes intrinsic clearance (CLint)
Protocol: The microsomal stability of test compounds was evaluated using rat liver microsomes (BioIVT) with and without the cofactors nicotinamide adenine dinucleotide phosphate (NADPH) and uridine-diphosphate-glucuronic acid (UDPGA). Reactions were performed in a final volume of 250 μl pre-warmed (37° C.) 100 mM phosphate buffer containing 5 mM MgCl2, 0.025 mg/ml alamethicin, and 0.5 mg/ml rat liver microsomes. NADPH and UDPGA were included at 1 mM and 2 mM respectively, where appropriate. Reactions were started with the addition of 1 μM (final concentration) test compound. Verapamil was used as the positive control. Solutions were incubated in a water bath at 37° C. and aliquots collected at 0.5, 5, 15, 30 and 60 min. Reactions were stopped by the addition of 5 volumes of cold acetonitrile with internal standards (200 nM caffeine and 100 nM tolbutamide). Samples were centrifuged at 3220 g for 40 min. An aliquot of supernatant was diluted 1:1 In ultra-pure H20, then used for LC-MS/MS analysis. Peak areas were determined from extracted ion chromatograms. The slope value, k, was determined by linear regression of the natural logarithm of the remaining percentage of the parent drug vs. incubation time curve. The in vitro half-life (in vitro t1/2) was determined from the slope value: in vitro t1/2=0.693/k. Conversion of the in vitro t1/2 (min) into the in vitro intrinsic clearance (in vitro CLint, in μL/min/mg protein) was done using the following equation (mean of duplicate determinations): in vitro Clint=(0.693/t1/2)*(Vol of incubation (μl)/amount of protein (mg)).

[3] = Hepatocyte clearance assay, human; format: in vitro ADME; details: cryopreserved primary human hepatocytes, average value from two experiments, read-out: Human heps intrinsic clearance (CLint)
Protocol: as §2

mPTP Rat liver pIC50* (mPTP) | solubility at 2 h (PBS solubility) | solubility at 2 h (FaSSIF solubility) | hepatocyte CLint at 1 µM [1] | microsomal CLint at 1 µM [2] | hepatocyte CLint at 1 µM [3] | SMILES | activity in the rat liver mitochondria assay (mPTP; comparison among Example compounds, in words)
7.2 | 0.4 µM (≈ 0.129 µg/mL) | 11 µM (≈ 3.53 µg/mL) | 61 µL/min/1e6 cells |  |  | O=C(/C=C/c1ccc2cn[nH]c2c1F)NC1CCc2ccccc21 (centres unmarked) [Example 9, (E)-N-(2,3-dihydro-1H-inden-1-yl)-3-(7-fluoro-1H-indazol-6-yl)acrylamide] | 
7.2 | 4.1 µM (≈ 1.32 µg/mL) |  |  | 38 µL/min/mg |  | O=C(/C=C/c1ccc2cn[nH]c2c1)NC1CCc2cc(F)ccc21 (centres unmarked) [Example 7, (E)-N-(5-fluoro-2,3-dihydro-1H-inden-1-yl)-3-(1H-indazol-6-yl)acrylamide] | 
7.6 | 10 µM (≈ 3.03 µg/mL) |  | 33 µL/min/1e6 cells | 59 µL/min/mg | 14 µL/min/1e6 cells | O=C(/C=C/c1ccc2cn[nH]c2c1)NC1CCc2ccccc21 (centres unmarked) [Example 2, (E)-N-(2,3-dihydro-1H-inden-1-yl)-3-(1H-indazol-6-yl)acrylamide] | 
7.1 | 0.11 µM (≈ 0.034 µg/mL) | 2 µM (≈ 0.619 µg/mL) |  | 118 µL/min/mg |  | Cc1c(F)cccc1NC(=O)/C=C/c1ccc2cn[nH]c2c1C [Example 1, (E)-N-(3-fluoro-2-methylphenyl)-3-(7-methyl-1H-indazol-6-yl)acrylamide] | 
6.3 | 2.5 µM (≈ 0.803 µg/mL) |  |  | 55 µL/min/mg |  | O=C(/C=C/c1ccc2cn[nH]c2c1)NC1CCc2cccc(F)c21 (centres unmarked) [Example 5, (E)-N-(7-fluoro-2,3-dihydro-1H-inden-1-yl)-3-(1H-indazol-6-yl)acrylamide] | 
8.1 |  |  |  |  | 21 µL/min/1e6 cells | Cc1ccc(F)c(C)c1NC(=O)/C=C/c1ccc2cn[nH]c2c1 [Example 28, (E)-N-(3-fluoro-2,6-dimethylphenyl)-3-(1H-indazol-6-yl)acrylamide] | highest activity

Further lines, the molecule ahead of its results:

SMILES | mPTP Rat liver pIC50* (mPTP) | solubility at 2 h (PBS solubility) | solubility at 2 h (FaSSIF solubility) | hepatocyte CLint at 1 µM [1] | microsomal CLint at 1 µM [2] | hepatocyte CLint at 1 µM [3] | activity in the rat liver mitochondria assay (mPTP; comparison among Example compounds, in words)
O=C(/C=C/c1ccc2cn[nH]c2c1)NC1CCc2c(F)cccc21 (centres unmarked) [Example 8, (E)-N-(4-fluoro-2,3-dihydro-1H-inden-1-yl)-3-(1H-indazol-6-yl)acrylamide] | 6.9 | 6.3 µM (≈ 2.02 µg/mL) |  |  | 41 µL/min/mg |  | 
O=C(/C=C/c1ccc2cn[nH]c2n1)NC1CCc2ccccc21 (centres unmarked) [Example 36, (E)-N-(2,3-dihydro-1H-inden-1-yl)-3-(1H-pyrazolo[3,4-b]pyridin-6-yl)acrylamide] | 6.3 |  | 45 µM (≈ 13.7 µg/mL) |  |  | 12 µL/min/1e6 cells | 
C[C@@H]1CCCC[C@H]1NC(=O)/C=C/c1ccc2cn[nH]c2c1 (racemic) [Example 4, (E)-3-(1H-indazol-6-yl)-N-((1R,2R)-2-methylcyclohexyl)acrylamide] | 6.3 | 5.2 µM (≈ 1.47 µg/mL) |  | 68 µL/min/1e6 cells | 39 µL/min/mg |  | 
Cc1c(F)cccc1NC(=O)/C=C/c1cnc2cn[nH]c2c1 [Example 34, (E)-N-(3-fluoro-2-methylphenyl)-3-(1H-pyrazolo[4,3-b]pyridin-6-yl)acrylamide] | 6.0 | 13 µM (≈ 3.85 µg/mL) |  |  | 51 µL/min/mg |  | 
O=C(/C=C/c1cc(Cl)c2cn[nH]c2c1)NC1CCc2ccccc21 (centres unmarked) [Example 13, (E)-3-(4-chloro-1H-indazol-6-yl)-N-(2,3-dihydro-1H-inden-1-yl)acrylamide] | 7.0 |  | 4 µM (≈ 1.35 µg/mL) | 95 µL/min/1e6 cells |  |  | 
O=C(/C=C/c1cc(F)c2cn[nH]c2c1)NC1CCc2ccccc21 (centres unmarked) [Example 11, (E)-N-(2,3-dihydro-1H-inden-1-yl)-3-(4-fluoro-1H-indazol-6-yl)acrylamide] | 7.3 | 1.4 µM (≈ 0.45 µg/mL) |  | 45 µL/min/1e6 cells | 58 µL/min/mg | 26.7 µL/min/1e6 cells | 
O=C(/C=C/c1ccc2cn[nH]c2c1)Nc1ccccc1CN1CC(F)C1 [Example 31, (E)-N-(2-((3-fluoroazetidin-1-yl)methyl)phenyl)-3-(1H-indazol-6-yl)acrylamide] | 6.3 | 59 µM (≈ 20.7 µg/mL) |  | 101 µL/min/1e6 cells |  | 36 µL/min/1e6 cells | 

— US12497359B2, “Acrylamide derivatives” (NRG Therapeutics Ltd, priority 2020, dated 2025)
